According to patent US10822376B2, “Biologically active peptides” (Baxalta Incorporated, priority 2008, dated 2020):
In brackets after ≈: the same amount, converted by molar mass. *1 amine or outer side, *2 acyl side, *3 side chain or, on linkers, in order; H or OH if unused. Where a SMILES comes first, the peptide text is derived from it. Bridges are numbered along the chain shown (N, C = ends). [ ]: non-standard residue; d: D form. The star is where a group is joined. NH(CH2)3(OCH2CH2)2O(CH2)3NH = C(CN[*:1])COCCOCCOCCCN[*:2]; X2 = NCCCC[C@H](N)C(=O)NCCCOCCOCCOCCCN*; X1 = NC(=O)CCC(=O)NCCCOCCOCCOCCCN*; Suc = O=C(CCC(=O)[*:2])[*:1]; X3 = CC(=O)NCCCOCCOCCOCCCN*

Experiments:
[1] = system: human FVIII inhibited plasma; test: Defined Intrinsic Thrombin Generation Assay (DITGA, triggered by FXIa and phospholipids); type: biochemical; conditions: for Activity in the Defined Intrinsic Thrombin Generation Assay: summary
Source text: (§1) The intrinsic pathway of thrombin generation may be assayed in a thrombin generation assay by including FXIa and phospholipids. In such an assay, which is similar to an activated partial thromboplastin time (aPTT) test, thrombin generation is solely directed through the intrinsic pathway, and is FVIII dependent. A suitable assay is the Defined Intrinsic Thrombin Generation Assay described below. Alternatively, by employing low concentrations of TF and phospholipids instead of FXIa and phospholipids, thrombin is generated by both the extrinsic (tissue factor) and the intrinsic pathways. This form of the thrombin generation assay is the more physiologic one, as both thrombin generation pathways are involved; it is partially FVIII dependent. A suitable assay is the Defined Dual-Pathway Thrombin Generation Assay.
The Defined Intrinsic Thrombin Generation Assay is performed as follows. FVIII activity of human plasma is inhibited by incubating (2 hours, 37° C.) 40 μl of human normal plasma with 10 μl heat inactivated anti-human FVIII plasma raised in goat (600 BU/ml, 6 hours incubated at 56° C.). […] Instead of FVIII-inhibited plasma, FVIII inhibitor patient plasma or several depleted plasmas can be used. The micro-plate is immediately put into a GENios Plus (Tecan) or Safire 2 (Tecan) fluorescence reader and the fluorescence signal (ex 340 nm/em 440 nm) is followed kinetically by reading the plate every 21 seconds.
For calculation of activity equivalent units experiments are performed with dilutions of Factor Eight Inhibitor Bypassing Agent (FEIBA, Baxter AG), Immunate (human FVIII, purified plasma derived) reference standard (Baxter AG) or Recombinate standard (human FVIII, purified recombinant, Baxter AG). A linear fit of the logarithm of FEIBA (FVIII) concentration plotted against thrombin generation time at peak thrombin results in a standard curve. With this curve FEIBA (FVIII) equivalent activity is calculated for a defined peptide concentration. […] Thus, where a concentration of 100 μM is given, the actual concentration in the final assay volume in 40 μM.
Compounds were screened using the “Defined intrinsic thrombin generation assay” in which thrombin generation was quantified in vitro in FVIII-inhibited human plasma in the presence of Factor XIa and phospholipid vesicles. Further compounds were screened in the above assay, and in the “Defined dual-pathway thrombin generation assay” using tissue factor and phospholipids instead of Factor XIa and phospholipids, as described in the specific description.
Various concentrations of each peptide were tested in the defined intrinsic thrombin generation assay using human FVIII inhibited plasma.

[2] = system: FVIII inhibited plasma; test: Defined Dual-Pathway Thrombin Generation Assay (DDPTGA, reagent C high), FVIII inhibited plasma; type: biochemical, human; conditions: for Peak IIa FEIBA EU / Peak IIa FVIIa EU / Peak Time FEIBA EU / Peak Time FVIIa EU: FVIII inhibited plasma; for Activity in the Defined Dual-Pathway Thrombin Generation Assay: summary, FVIII inhibited or deficient plasma
Source text: as §1
(§2) Preferably, Reagent C high is used.
(§3) Tissue factor dependency of peak thrombin generation and thrombin peak time was characterised in a composition containing a fixed concentration of phospholipid (namely 3.2 μM). Phospholipid dependency was characterised in a composition containing a fixed concentration of tissue factor (namely 7.2 μM). Peak time (time to peak thrombin generation) was dependent on the concentration of phospholipid or tissue factor. The final version of this assay is as described in the specific description, in which 10 μl reagent C high containing (32 μM phospholipid and 71.6 μM tissue factor) is used in a total volume of 100 μl.
(§4) Further studies were conducted using 3.2 μM phospholipid and 7.2 μM tissue factor in FVIII deficient or inhibited plasma, to characterise the effect on peak thrombin generation and thrombin peak time of various coagulation factor preparations. These studies provided a basis from which to compare the efficacy of the compounds in the assay. Briefly, rFVIII (Recombinate® FVIII from Baxter) was tested at 0, 5, 10, 20, 40 and 80 mU/ml in FVIII deficient plasma. FEIBA was tested at 0, 8, 16, 31, 63 and 125 mU/ml in FVIII inhibited plasma. FVIIa was tested at 0, 0.1, 0.4, 1.6, 6.3 and 25 nM in FVIII inhibited plasma. […] Peak thrombin increased and both the lag time and the thrombin peak time decrease.

[3] = system: FVIII deficient plasma; test: Defined Dual-Pathway Thrombin Generation Assay (DDPTGA, reagent C high), FVIII deficient plasma; type: biochemical, human; conditions: FVIII deficient plasma
Source text: as §1, §2, §3, §4

[4] = system: Factor VIII deficient human plasma; test: DDPTGA (reagent B) in FVIII depleted plasma; type: biochemical; conditions: compounds at 50 μM and 80, 90 or 100 μM; note: key: '+' means stimulates; '−' means does not stimulate
Source text: as §2

[5] = physchem; conditions: for solubility kinetic: pH 7.4
Experimental: Aqueous solubility is measured in PBS at pH 7.4 either in an assay provided by Cerep (France, Catalog ref. 900-11a) or according to the following protocol. The aim of this procedure is to determine the solubility of a drug candidate (analyte) in a buffer, by estimating the saturation concentration of the candidate in the buffer using HPLC. A known concentration of the candidate in an organic solvent is used as a standard. A stock solution of the test compound in DMSO must be prepared as the initial step. […] DMSO stock-solutions are diluted to a final concentration of 50 μM with DMSO (100% reference-solution) and buffer (test-solution) to provide a minimum volume of 500 μL of each. Both solutions are shaken at 25° C. at 950 rpm in an Eppendorf “thermomixer comfort” for at least 60 min. The suspension is centrifuged at 22 330 g for at least two min and 100 μL of the supernatant is transferred into polypropylene-inserts placed in glass vials and closed by snap-ring caps. Alternatively the solutions can be prepared in microtiter plates with half of the previously described starting solvent volume. For the determination of the solubility all samples are analyzed by HPLC in triplicate. Injection volume is at least 10 μL. The obtained data are analyzed by “Chemstation-software” (Agilent, Waldbronn, Germany). The peaks from the analyses of the organic solutions are integrated and the arithmetic mean is reported as “AUC 1” (reference area of known amount injected at the HPLC). […] The ratio of the mean “AUC 2” and “AUC 1” is calculated and thus the percentage of the dissolved amount of compound in buffer is obtained and solubility can be reported in μM.

[6] = Plasma stability; conditions: human
Experimental: Half-life of compounds in human or mouse plasma, or percentage of compound remaining after an incubation in human or mouse plasma, is determined as follows. In the experimental procedure, test compound concentrations are 5 μM, prepared from test compound stock solutions of 10 mM in DMSO. Propantheline is used as a standard. […] All of the samples are incubated in a water bath at 37° C. […] After a chosen duration of incubation (generally at t=60 min) each sample is mixed with a further 500 μl acetonitrile. The samples are mixed on a vortex mixer for 30 s and placed on ice for 10 min and collected for centrifugation. Samples are centrifuged at 20 000 g for 10 min at 4° C. 500 μl supernatant is transferred into a new 1.5 ml Eppendorf tube and an equal volume of acetonitrile is added. The sample is mixed again for 30 s using a vortex mixer. After a second centrifugation step (20 000 g, 10 min, 4° C.) 250 μl of the supernatant is transferred into HPLC glass vials for HPLC-MS analysis. Conditions for performing HPLC are as follows: Injection-volume is set to 20 μl. Temperature is set to 25° C. A linear gradient from 95:5 to 5:95 water:acetonitrile both containing 0:05% trifluoroacetic acid (TFA) (v/v) is applied at a flow rate of 0.3 ml/min for 10 min. The PDA-detector is scanning from 210-400 nm.

[7] = in vitro; conditions: human, pH 7.4
[8] = in vitro; conditions: mouse, pH 7.4

CC[C@H](C)[C@H](NC(=O)[C@H](CCC(=O)O)NC(=O)[C@H](Cc1ccccc1)NC(=O)[C@H](Cc1ccc(O)cc1)NC(=O)[C@H](CC(C)C)NC(=O)[C@H](CC(=O)O)NC(=O)[C@H](Cc1c[nH]c2ccccc12)NC(=O)[C@@H](NC(=O)[C@H](CC(=O)O)NC(=O)[C@H](Cc1ccccc1)NC(=O)[C@H](CCC(=O)O)NC(=O)[C@H](CCSC)NC(=O)[C@H](CCCNC(=N)N)NC(=O)CCC(=O)NCCCOCCOCCOCCCN)C(C)C)C(=O)N[C@H](C(=O)N[C@@H](Cc1c[nH]c2ccccc12)C(=O)NCCCOCCOCCOCCCNC(=O)CCC(N)=O)C(C)C [Peptide A08] ({NH(CH2)3(OCH2CH2)2O(CH2)3NH-Suc}-RMEFDVWDLYFEIVW-X1)
Thrombin peak time given as FEIBA equivalent activity ([1]; peptide 6.25 μM): 563 mU/ml | Thrombin peak time given as FEIBA equivalent activity ([1]; peptide 12.5 μM): 656 mU/ml | Thrombin peak time given as FEIBA equivalent activity ([1]; peptide 25 μM): 764 mU/ml | Thrombin peak time given as FEIBA equivalent activity ([1]; peptide 50 μM): 958 mU/ml | Thrombin peak time given as FEIBA equivalent activity ([1]; peptide 100 μM): 1213 mU/ml | Activity in the Defined Intrinsic Thrombin Generation Assay [1]: possess activity | Peak IIa FEIBA EU ([2]; peptide 50 μM): BLS (BLS = below lowest standard.) | Peak IIa FVIIa EU ([2]; peptide 50 μM): BLS (BLS = below lowest standard.) | Peak Time FEIBA EU ([2]; peptide 50 μM): 9.1 mU/ml | Peak Time FVIIa EU ([2]; peptide 50 μM): 0.4 nM | Activity in the Defined Dual-Pathway Thrombin Generation Assay [2]: possess activity | Peak IIa FVIII EU ([3]; peptide 50 μM): BLS (BLS = below lowest standard.) | Peak Time FVIII EU ([3]; peptide 50 μM): BLS (BLS = below lowest standard.) | Stimulation of thrombin generation [4]: + | solubility kinetic [5]: 11 µM (≈ 29.2 µg/mL) | remaining at 0.5 h, 5 μM [6]: 70%

CSCC[C@H]1NC(=O)[C@@H](Cc2ccc(O)cc2)NC(=O)[C@H](NC(=O)CCC(=O)NCCCOCCOCCOCCCNC(C)=O)CSSC[C@H](C(=O)N[C@H](Cc2ccc(O)cc2)C(=O)N[C@H](CCC(=O)O)C(N)=O)NC(=O)[C@@H](CC(=O)O)NC(=O)[C@@H](Cc2ccc(O)cc2)NC(=O)[C@@H](Cc2c[nH]c3ccccc23)NC(=O)[C@@H](Cc2ccccc2)NC1=O [Peptide B05, Ac-TTDS-(cymfwydc)-ye-NH2] ({X3-Suc}-[dC][dY][dM][dF][dW][dY][dD][dC][dY][dE]-NH2; disulfide 1-8)
Thrombin peak time given as FEIBA equivalent activity ([1]; peptide 12.5 μM): 126 mU/ml | Thrombin peak time given as FEIBA equivalent activity ([1]; peptide 25 μM): 152 mU/ml | Thrombin peak time given as FEIBA equivalent activity ([1]; peptide 50 μM): 270 mU/ml | Thrombin peak time given as FEIBA equivalent activity ([1]; peptide 100 μM): 649 mU/ml | Thrombin peak time given as FEIBA equivalent activity ([1]; peptide 200 μM): 1089 mU/ml | Activity in the Defined Intrinsic Thrombin Generation Assay [1]: possess activity | solubility kinetic [5]: 174 µM (≈ 307 µg/mL) | remaining at 0.5 h, 5 μM [6]: 112%

CSCC[C@H]1NC(=O)[C@@H](Cc2ccc(O)cc2)NC(=O)[C@H](NC(=O)CCC(=O)NCCCOCCOCCOCCCNC(=O)[C@@H](N)CCCCN)CSSC[C@H](C(=O)N[C@H](Cc2ccc(O)cc2)C(=O)N[C@H](CCC(=O)O)C(N)=O)NC(=O)[C@@H](CC(=O)O)NC(=O)[C@@H](Cc2ccc(O)cc2)NC(=O)[C@@H](Cc2c[nH]c3ccccc23)NC(=O)[C@@H](Cc2ccccc2)NC1=O [Peptide B06, K-TTDS-(cymfwydc)-ye-NH2] ({X2-Suc}-[dC][dY][dM][dF][dW][dY][dD][dC][dY][dE]-NH2; disulfide 1-8)
Thrombin peak time given as FEIBA equivalent activity ([1]; peptide 12.5 μM): 95 mU/ml | Thrombin peak time given as FEIBA equivalent activity ([1]; peptide 25 μM): 157 mU/ml | Thrombin peak time given as FEIBA equivalent activity ([1]; peptide 50 μM): 172 mU/ml | Thrombin peak time given as FEIBA equivalent activity ([1]; peptide 100 μM): 378 mU/ml | Thrombin peak time given as FEIBA equivalent activity ([1]; peptide 200 μM): 902 mU/ml | Activity in the Defined Intrinsic Thrombin Generation Assay [1]: possess activity | solubility kinetic [5]: 48 µM (≈ 88.8 µg/mL) | solubility ([5]; pH 7.4, Solubility in PBS pH 7.4): ≥ 25 µM | remaining at 0.5 h, 5 μM [6]: 93%

CC[C@@H](C)[C@@H](NC(=O)[C@@H](CO)NC(C)=O)C(=O)N[C@H](CCSC)C(=O)N[C@H](Cc1ccccc1)C(=O)N[C@H](Cc1c[nH]c2ccccc12)C(=O)N[C@H](Cc1ccc(O)cc1)C(=O)N[C@H](CC(=O)O)C(=O)N[C@H](CCC(=O)O)C(=O)N[C@H](Cc1ccc(O)cc1)C(=O)N[C@H](CCC(=O)O)C(N)=O [Peptide B07, Ac-simfwydeye-NH2] (Ac-[dS][dI][dM][dF][dW][dY][dD][dE][dY][dE]-NH2)
Activity in the Defined Intrinsic Thrombin Generation Assay [1]: possess activity | solubility kinetic [5]: 195 µM (≈ 278 µg/mL) | remaining at 0.5 h, 5 μM [6]: 89%

CC(=O)CC(c1ccccc1)c1c(O)c2ccccc2oc1=O (stereo not shown) [Warfarin, warfarin]
recovery at 6 h, 10 μM [7]: 99.3% | recovery at 6 h, 10 μM [8]: 88.6%

Ac-RMDFDVWDLYFEIVW-NH2 [Peptide A03]
Thrombin peak time given as FEIBA equivalent activity ([1]; peptide 6.25 μM): 477 mU/ml | Thrombin peak time given as FEIBA equivalent activity ([1]; peptide 12.5 μM): 639 mU/ml | Thrombin peak time given as FEIBA equivalent activity ([1]; peptide 25 μM): 762 mU/ml | Thrombin peak time given as FEIBA equivalent activity ([1]; peptide 50 μM): 1069 mU/ml | Thrombin peak time given as FEIBA equivalent activity ([1]; peptide 100 μM): 1396 mU/ml | Activity in the Defined Intrinsic Thrombin Generation Assay [1]: possess activity | Peak IIa FEIBA EU ([2]; peptide 50 μM): BLS (BLS = below lowest standard.) | Peak IIa FVIIa EU ([2]; peptide 50 μM): BLS (BLS = below lowest standard.) | Peak Time FEIBA EU ([2]; peptide 50 μM): BLS (BLS = below lowest standard.) | Peak Time FVIIa EU ([2]; peptide 50 μM): BLS (BLS = below lowest standard.) | Peak IIa FEIBA EU ([2]; peptide 100 μM): BLS (BLS = below lowest standard.) | Peak IIa FVIIa EU ([2]; peptide 100 μM): BLS (BLS = below lowest standard.) | Peak Time FEIBA EU ([2]; peptide 100 μM): BLS (BLS = below lowest standard.) | Peak Time FVIIa EU ([2]; peptide 100 μM): BLS (BLS = below lowest standard.) | Activity in the Defined Dual-Pathway Thrombin Generation Assay [2]: possess activity | Peak IIa FVIII EU ([3]; peptide 50 μM): BLS (BLS = below lowest standard.) | Peak Time FVIII EU ([3]; peptide 50 μM): BLS (BLS = below lowest standard.) | Peak IIa FVIII EU ([3]; peptide 100 μM): BLS (BLS = below lowest standard.) | Peak Time FVIII EU ([3]; peptide 100 μM): BLS (BLS = below lowest standard.) | solubility kinetic [5]: 110 µM | remaining at 0.5 h, 5 μM [6]: 92%

Ac-VWDLYFEIVW-NH2 [Peptide A19]
Thrombin peak time given as FEIBA equivalent activity ([1]; peptide 6.25 μM): 383 mU/ml | Thrombin peak time given as FEIBA equivalent activity ([1]; peptide 12.5 μM): 495 mU/ml | Thrombin peak time given as FEIBA equivalent activity ([1]; peptide 25 μM): 525 mU/ml | Thrombin peak time given as FEIBA equivalent activity ([1]; peptide 50 μM): 663 mU/ml | Thrombin peak time given as FEIBA equivalent activity ([1]; peptide 100 μM): 826 mU/ml | Activity in the Defined Intrinsic Thrombin Generation Assay [1]: possess activity | solubility kinetic [5]: 14 µM | remaining at 0.5 h, 5 μM [6]: 99%
